Assay [1] relates to aortic valve lesions. Description: Histomorphometry of aortic valves in rabbit model of aortic valve stenosis. In kind it is in vivo, New-Zealand White rabbits. The following applies: treated group; post mortem after 2 weeks of treatment. An excerpt:
An animal model adapted from that described by Drolet et al. (12) was used. Fifteen male New-Zealand White rabbits (2.7-3.0 kg, aged 12-13 weeks) were fed with a 0.5% cholesterol-enriched diet (Harlan, Indianapolis, Ind.) plus vitamin D2 (50000 UI per day; Sigma, Markham, Canada) in the drinking water until significant AVS, as defined by a decrease ≧10% of aortic valve area (AVA) or of the transvalvular velocities ratio (V1/V2), could be detected by echocardiography (12.9±2.4 weeks). The animals then returned to a standard diet (without vitamin D2) to mimic cholesterol lowering and were randomly assigned to receive either saline (control group, n=8) or the ApoA-1 mimetic peptide (treated group, n=7). Rabbits were given injections through the marginal ear vein of saline or of the ApoA-1 mimetic peptide (25 mg/kg) complexed with phospholipids (Compound A), 3 times per week for 2 weeks. Echocardiograms were performed serially (see Echocardiography Methods) every 3 to 4 days throughout the randomized treatment period. Two days after their last infusion, the animals underwent a final echocardiogram and were sacrificed, and the aortic valves were harvested for histological analyses. Blood samples were obtained through the ear artery at baseline, prior to treatment and before sacrifice. Total cholesterol, HDL cholesterol, triglycerides and calcium levels were measured with an automated filter photometer system (Dimension RxL Max, Dade Behring, Ill.). The ascending aorta and aortic valve were opened longitudinally and the 3 valvular cusps were separated. […] Stained or immunohistochemically labeled tissue sections obtained from the central third of each cusp were analyzed with a computer-based digitizing image system (Image Pro Plus, version 5.1) using a light microscope (BX41, Olympus) connected to a digital video camera (Qcolor3, Olympus). […] Lesion area (LA) and leaflet lesion length (LLL) were measured. […] Relationships between histomorphometry and echocardiographic variables were evaluated using Pearson correlation coefficient. […]

Assay [2] concerns aortic valve lesions. Description: Histochemistry of aortic valves (von Kossa, filipin, Sirius red, immunohistochemistry) in rabbit model of aortic valve stenosis. In kind it is in vivo, New-Zealand White rabbits. An excerpt:
An animal model adapted from that described by Drolet et al. (12) was used. Fifteen male New-Zealand White rabbits (2.7-3.0 kg, aged 12-13 weeks) were fed with a 0.5% cholesterol-enriched diet (Harlan, Indianapolis, Ind.) plus vitamin D2 (50000 UI per day; Sigma, Markham, Canada) in the drinking water until significant AVS, as defined by a decrease ≧10% of aortic valve area (AVA) or of the transvalvular velocities ratio (V1/V2), could be detected by echocardiography (12.9±2.4 weeks). The animals then returned to a standard diet (without vitamin D2) to mimic cholesterol lowering and were randomly assigned to receive either saline (control group, n=8) or the ApoA-1 mimetic peptide (treated group, n=7). Rabbits were given injections through the marginal ear vein of saline or of the ApoA-1 mimetic peptide (25 mg/kg) complexed with phospholipids (Compound A), 3 times per week for 2 weeks. Echocardiograms were performed serially (see Echocardiography Methods) every 3 to 4 days throughout the randomized treatment period. Two days after their last infusion, the animals underwent a final echocardiogram and were sacrificed, and the aortic valves were harvested for histological analyses. Blood samples were obtained through the ear artery at baseline, prior to treatment and before sacrifice. Total cholesterol, HDL cholesterol, triglycerides and calcium levels were measured with an automated filter photometer system (Dimension RxL Max, Dade Behring, Ill.). Hematoxylin-phloxin-safran, von Kossa and Sirius red (F3B, BDH, UK) stained sections were prepared for routine examination, tissue calcification and collagen studies respectively. Collagen fibers types I and III were quantified as previously described (13), on Sirius red picric acid stained sections under polarized light. For immunohistochemistry evaluation, all sections were preincubated with either mouse IgG2a monoclonal antibody against rabbit macrophage (RAM11, Dako, Canada) (1:100 dilution) or rabbit smooth muscle cell α-actin (Clone 1A4, Dako, Canada) (1:200 dilution). Species-appropriate biotinylated secondary antibodies were applied, followed by streptavidin horseradish peroxidase complex, visualized with azoethylcarbazol (AEC) and counterstained by Mayer's hematoxylin. Smooth muscle cells, macrophages and calcification areas were quantified in the ROA on digital images acquired at 40× magnification. Images from each section were digitally captured with the same illumination settings, and automatic computer-based analysis was performed with the same color threshold for all specimens. Data were expressed as percent labelled area in ROA. For assessment of tissue free cholesterol, 5 μm cryosections fixed in 4% paraformaldehyde in PBS (pH 7.4) were stained with filipin (13). Sections were incubated for 1 hour at room temperature in filipin complex (Sigma, Canada) dissolved in DMSO and diluted in PBS, mounted in Vectashield (Vector Laboratories, USA) and viewed by fluorescence microscopy using a Zeiss Axiovert 200M microscope with the DAPI filter set. Images were acquired with an AxioCam MRm digital camera mounted with a 0.63× C-mount adapter. Filipin data were expressed as arbitrary units of fluorescence intensity. Data are presented as mean±standard deviation. For the “pre-treatment” period, repeated measures analysis of variance (ANOVA) models were used to study the echocardiographic and serum measurements across time and between groups (treated vs. control groups). Models with time, group and group×time interaction as independent variables were used and comparisons between groups at a given time point were undertaken only in the presence of a significant group×time interaction. Otherwise, global conclusions were drawn based on the main group effects of the model. […]

Where [3] appears, read: treated rabbits, Sirius red, polarized light.

As for “H-Pro-Val-Leu-Asp-Leu-Phe-Arg-Glu-Leu-Leu-Asn-Glu-Leu-Leu-Glu-Ala-Leu-Lys-Gln-Lys-Leu-Lys-OH (H-PVLDLFRELLNELLEALKQKLK-OH; not fully specified) [ApoA-1 mimetic peptide, ApoA-1 mimetic peptide complexed with phospholipids, mimicking nascent HDL]”, in assay [1], the “% LLL (percentage of total leaflet length occupied by lesion)” value was 55.7±24.3%; the “Lesion extent at the base of valve leaflets and sinuses of Valsalva” value was found to be 52.8±12.5%; the “percentage of lesion area (LA) per region of analysis (ROA)” value is given as 52.8±12.5 %/ROA. Besides, the “decrease in free cholesterol compared to controls” value in assay [2] (treated animals vs. controls, first 10 μm at luminal edge of lesions, not statistically significant, P=0.231) turned out to be 41%. The “free cholesterol (filipin fluorescent signal)” value in assay [2] (treated animals, within the first 10 μm at the luminal edge of lesions) is reported as 221±54 arbitrary units of fluorescence intensity. In addition, the “percentage of rabbits with calcium deposits in the lesion core in the sinuses of Valsalva” value in assay [2] (treated group) was found to be 57%. Moreover, the “decrease of calcification area compared to controls” value in assay [2] (treated group vs. controls, von Kossa staining, strong trend, P=0.063) is on record as 77%. Moreover, the “percentage of the sinus of Valsalva area occupied by calcifications” value in assay [2] (treated group, von Kossa staining) came out at 1.6±2.0%. Further, in assay [2] (setting [3]), the “percentage of collagen type I fibers in the ROA” value turned out to be 5.5±5.6 %/ROA and the “percentage of collagen type III fibers in the ROA” value stood at 19.1±11.3 %/ROA. The macrophage areas result in assay [2] (treated vs. control group, RAM11 immunohistochemistry) is on record as “no significant differences between groups”. Further, the α-actin positive areas entry in assay [2] (treated vs. control group, smooth muscle cell α-actin immunohistochemistry) is on record as “no significant differences between groups”.
